Experiments:
HIV‐2 [ROD)] = test: Anti-HIV activity, HIV-2 in thymidine kinase-deficient CEM/TK^− cells; type: cell-based; conditions: Human immunodeficiency virus 2, CEM-TK(-), thymidine kinase-deficient CEM/TK^− cells, mean ±SD n = 2–3; read-out: Antiviral activity CEM/TK^− HIV‐2 [ROD)] EC50
Method: (§1) Part 9. Anti-HIV activity assay.
(§2) The produce was used as previously reported. 5 Inhibition of HIV-1(IIIB)- and HIV-2(ROD)-induced cytopathogenicity in wild-type CEM/0 and thymidine kinase-deficient CEM/TK– cell cultures was measured in […]
(§3) containing appropriate dilutions of the test compounds. After 4−5 days of incubation at 37 °C in a CO2-controlled humidified atmosphere, CEM giant (syncytium) cell formation was examined microscopically. The […]
(§4) giant cell formation by 50%.
(§5) Part 10. Primer-extension assays. […]

HIV‐1 [HE] = test: Anti-HIV activity, HIV-1 in wild-type CEM/0 cells; type: cell-based; conditions: Human immunodeficiency virus 1, CCRF-CEM; wild-type CEM/0 cells, mean ±SD n = 2–3; read-out: Antiviral activity CEM/0 HIV‐1 [HE] EC50
HIV‐2 [ROD] = test: Anti-HIV activity, HIV-2 in wild-type CEM/0 cells; type: cell-based; conditions: Human immunodeficiency virus 2, CCRF-CEM; wild-type CEM/0 cells, mean ±SD n = 2–3; read-out: Antiviral activity CEM/0 HIV‐2 [ROD] EC50
Method: as §1, §2, §3, §4, §5

pig liver esterase (PLE) = test: Hydrolysis with pig liver esterase (PLE); type: in vitro ADME; conditions: pig liver esterase (PLE) in PBS, PLE in PBS pH 7.3, 37 °C, read-out: PLE t 1/2 (converted)
Text: Next, TriPPPro‐compounds 10 and 20 were exposed to PLE in PBS (pH 7.3) and the half‐lives of TriPPPro‐compounds 10 and 20 are listed in Table 1. […] In contrast, the cleavage of the AB (C4) masking group in TriPPPro‐compounds 10by–hy and 10bz–hz was triggered by ester hydrolysis and yielded the corresponding γ‐alkylated nucleoside triphosphate derivatives 20 (Figure 3B,D) and 21 (Figures S17 and S18, Supporting Information), respectively. […] Moreover, a very small amount of NDPs was observed, probably due to a reaction involving a nucleophilic reaction at the γ‐phosphate or γ‐phosphonate moiety (pathways d and f, Scheme 5). […]
(§6) Part 4. Chemical Hydrolysis of TriPPPro-compounds 10 and 20.
Second prepare 1.9 mM hydrolysis
Part 5. Hydrolysis of TriPPPro-compounds 10 and 20 with PLE .
Second, 125 µL DMSO and 833 µL
62.5 µL of PLE solution in PBS (100
mixture was stored in the freezer (- 30 °C).
by analytical HPLC (HPLC Method).
similar to that for the chemical hydrolysis studies. […]
(§7) Then, aliquots of 50 µL human

in vitro [1] = conditions: human
Method: The hydrolysis properties of TriPPPro‐compounds 10 and 20 were evaluated in phosphate buffer saline (PBS, pH 7.3), pig liver esterase (PLE) or CEM/0 cell extracts. In both cases, hydrolysis products were analyzed by means of analytical RP18‐HPLC and the hydrolysis half‐lives (Table 1 , t1/2 ) of TriPPPro‐compounds 10 and 20 were calculated after complete consumption of the starting materials.
The hydrolysis of TriPPPro‐compounds 10 and 20 was carried out with CEM/0 cell extracts as well. […]
Part 6. Enzyme-Catalyzed Hydrolysis of TriPPPro-compounds 10 and 20 in CEM Cell […]
First prepare 3.0 mM hydrolysis solutions of Tri PPPro-compounds 10 and 20 in DMSO and H2O: 21 µL stock solution (50 mM in DMSO) and 154 µL DMSO, and 175 µL Milli-Q water. Three-twelve different samples (20 µL 3.0 mM hydrolysis solutions) were prepared in 2 mL Eppendorf® vials. Then, aliquots of 50 µL human CEM cell extracts were added to these samples and the reaction was started. The samples were incubated at 37 °C in a thermomixer for different time periods. The reaction was stopped by addition of 150 µL MeOH and kept on ice for 5 min. After centrifugation at 14,000 rpm for 12 min, the supernatants were filtered (Chromafil RC-20/15 MS, 0.2 μm) and stored in liquid nitrogen. When testing, aliquots of 60 µL (injection volume) were analyzed by analytical HPLC (HPLC Method). The calculation of t1/2 was obtained using Origin again.
(§8) Part 7. Hydrolysis of TriPPPro-compounds 10 and 20 in human plasma.
µL 3.0 mM hydrolysis solutions) were prepared in 2 mL Eppendorf® vials.

[2] = Chemical hydrolysis in phosphate buffer saline (PBS, pH 7.3); type: physicochemical; conditions: PBS pH 7.3, 37 °C, read-out: PBS pH 7.3 t 1/2 (converted)
Method: as §6
Second prepare 1.9 mM hydrolysis […]
as §7

in vitro [3] = conditions: human, CEM/0 cells (wild-type CD4+ T-cells)
Method: All TriPPPro‐compounds 10 and 20, as well as their parent nucleosides and the corresponding NTPs, were evaluated for their antiviral activity (expressed as EC50 values) against HIV‐1 (wild‐type CEM/0 cells) and HIV‐2 (wild‐type CEM/0 cells and thymidine kinase‐deficient (CEM/TK^−) cells) with concomitant determination of cytotoxicity in the same cell line (Table 3 ).

in vitro [4] = conditions: for half-life at 0.86 mM: human, plasma
Method: First prepare 50 mM solutions of TriPPPro-compounds 10 and 20 in DMSO. […]
First prepare 3.0 mM hydrolysis solutions of Tri PPPro-compounds 10 and 20 in DMSO and H2O: 21 µL stock solution (50 mM in DMSO) and 154 µL DMSO, and 175 µL Milli-Q water. Three-twelve different samples (20 […]
The calculation of t1/2 was obtained using Origin again.
as §8
µL 3.0 mM hydrolysis solutions) were prepared in 2 mL Eppendorf® vials. Then, aliquots of 50 µL human Plasma (Heparin or Citrate) were added to these samples and the reaction was started. The samples were […]
incubated at 37 °C in a thermomixer for different time periods. The reaction was stopped by addition of 150 µL MeOH and kept on ice for 5 min. After centrifugation at 14,000 rpm for 22 min, the supernatants were filtered (Chromafil RC-20/15 MS, 0.2 μm) and stored in liquid nitrogen. When testing, aliquots of 25 0r 30 µL (injection volume) were analyzed by analytical HPLC (HPLC Method). The calculation of t1/2 was obtained using Origin […]
Part 8. Preparation of cell extracts and human plasma. […]

Row | SMILES | EC50 (HIV‐2 [ROD)]) [nM] | EC50 (HIV‐1 [HE]) [nM] | EC50 (HIV‐2 [ROD]) [nM] | half-life at 0.45 mM (pig liver esterase (PLE)) [h] | half-life at 0.86 mM (in vitro [1]) [h] | half-life at 1.9 mM [2] [days] | CC50 (in vitro [3]) [nM] | half-life at 0.86 mM (in vitro [4]; Plasma (Citrate) t 1/2) [h] | half-life at 0.86 mM (in vitro [4]; Plasma (Heparin) t 1/2) [h] | half-life at 0.86 mM (in vitro [4]; t 1/2 in human plasma (over heparin and citrate plasma)) [h] | Plasma (Citrate) t 1/2 (in vitro [4]; citrate-stabilized human plasma, 37 °C) [h] | Plasma (Heparin) t 1/2 (in vitro [4]; heparin-stabilized human plasma, 37 °C) [h] | t 1/2 in human plasma (over heparin and citrate plasma) (in vitro [4]; human plasma 37 °C, heparin and citrate taken together) [h]
1 | CCCCCCCCCCCCCCCCCCOP(=O)(OCc1ccc(OC(=O)CCCC)cc1)OP(=O)(O)OP(=O)(O)OC[C@@H]1C=C[C@H](n2cnc3c(NC4CC4)nc(N)nc32)C1 (stereo partly drawn) [10hy] | 210 ± 110 | 960 ± 490 | 290 ± 160 | 0.97 | 1.3 | 1.92 | > 100000 | – | – | – | – | – | –
2 | CCCCCCCCCCCCCCCCCCOP(=O)(O)OP(=O)(O)OP(=O)(O)OC[C@@H]1O[C@H](n2cc(F)c(N)nc2=O)CS1 [20c, γ‐C18‐FTCTP] | 51 ± 69 | 350 ± 250 | 220 ± 20 | > 150 | > 30 | > 83.3 | 63400 ± 13700 | – | – | – | – | – | –
3 | CCCCCCCCCCCCCCCCCCOP(=O)(O)OP(=O)(O)OP(=O)(O)OC[C@H]1O[C@@H](n2cc(Cl)c(=O)[nH]c2=O)C[C@@H]1F [20d] | 62100 | 3140 ± 2930 | 2240 ± 650 | > 150 | > 20 | > 83.3 | > 100000 | – | – | – | – | – | –
4 | CCCCCCCCCCCCCCCCCCOP(=O)(O)OP(=O)(O)OP(=O)(O)OC[C@H]1O[C@@H](n2ccc(=O)[nH]c2=O)C[C@@H]1F [20e, γ‐C18‐FddUTP] | 3560 ± 1880 | 92 ± 82 | 390 ± 300 | > 150 | > 20 | > 83.3 | 63700 ± 13600 | – | – | – | – | – | –
5 | CCCCCCCCCCCCCCCCCCOP(=O)(O)OP(=O)(O)OP(=O)(O)OC[C@H]1O[C@@H](n2cc(C)c(=O)[nH]c2=O)C[C@@H]1F [20f, γ‐C18‐FLTTP] | 1270 ± 540 | 19 ± 19 | 10 ± 1 | > 150 | > 20 | > 83.3 | > 100000 | – | – | – | – | – | –
6 | CCCCCCCCCCCCCCCCCCOP(=O)(O)OP(=O)(O)OP(=O)(O)OC[C@H]1O[C@@H](n2cc(/C=C/Br)c(=O)[nH]c2=O)C[C@@H]1O [20g] | 15700 ± 980 | > 10000 | > 10000 | > 150 | > 20 | > 83.3 | > 100000 | – | – | – | – | – | –
7 | Cc1cn([C@H]2C[C@H](N=[N+]=[N-])[C@@H](COP(=O)(O)OP(=O)(O)O)O2)c(=O)[nH]c1=O [AZTDP, reference compound] | – | – | – | – | – | – | – | 6.4 | 2.8 | 2.8 to 6.4 | – | – | –
8 | Cc1cn([C@H]2C[C@H](N=[N+]=[N-])[C@@H](COP(=O)(O)O)O2)c(=O)[nH]c1=O [AZTMP, reference compound] | – | – | – | – | – | – | – | – | – | – | 4.5 | 2.0 | 2.0 to 4.5
